Patent publication US9708314B2, “Heterocyclic amide compound” (NISSAN CHEMICAL INDUSTRIES, LTD., priority 2013, dated 2017)

Legend:
[1] = system: Echinochloa oryzacola Vasing.; test: Test Example 1: herbicidal activity, application before weed generation in submerged conditions; format: in vivo; conditions: Application herbicide amount 320 g/ha; Seventeenth Table
In short: (§1)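 Rating, on a six-step scale from almost no effect (0) to almost completely withered (5), was made three weeks after pre-emergence treatment. Treatment was surface application to flooded pots at g/ha rates, with plants kept at 25° C. to 30° C.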

Monochoria vaginalis [2] = test: as above; format: in vivo; conditions: Application herbicide amount 320 g/ha; Seventeenth Table
In short: as §1

Scirpus juncoides [3] = test: as above; format: in vivo; conditions: Application herbicide amount 320 g/ha; Seventeenth Table
In short: as §1

[4] = system: transplanted Oryza sativa; test: Test Example 1: effect on crop, application before weed generation in submerged conditions; format: in vivo; conditions: Application herbicide amount 320 g/ha; Seventeenth Table
In short: as §1

[5] = system: Echinochloa oryzacola Vasing.; test: Test Example 2: herbicidal activity, application during weed generation in submerged conditions; format: in vivo; conditions: Eighteenth Table; application herbicide amount 320 g/ha
In short: (§2)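 Post-emergence application under submerged conditions: water-diluted emulsion dosed onto the water surface (g/ha) when weeds reach one- to two-leaf stage. Soil flooded to 4 cm; greenhouse 25–30 °C. Herbicidal ratio graded in six classes, 0 (≤5%) to 5 (≥90%), at three weeks.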

Monochoria vaginalis [6] = test: as above; format: in vivo; conditions: Eighteenth Table; application herbicide amount 320 g/ha
In short: as §2

Scirpus juncoides [7] = test: as above; format: in vivo; conditions: Eighteenth Table; application herbicide amount 320 g/ha
In short: as §2

Cyperus difformis = test: Test Example 3: herbicidal effect by application to foliage (Wagner pot, water depth 0.1-0.5 cm); format: in vivo; conditions: Nineteenth Table; application to foliage; application herbicide amount 320 g/ha
In short: (§3)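 Seeds were sown in alluvial soil in Wagner pots, grown for 14 days at 25–30 °C, then sprayed uniformly on foliage with the emulsified compound diluted to a given rate per hectare. Injury was graded three weeks after treatment from 0 (≤5%) to 5 (≥90%).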

[8] = system: Echinochloa crus-galli var. crus-galli; test: as above; format: in vivo; conditions: Nineteenth Table; application to foliage; application herbicide amount 320 g/ha
In short: as §3

Leptochloa chinensis = test: Test Example 3: herbicidal effect by application to foliage (Wagner pot, water depth 0.1-0.5 cm); format: in vivo; conditions: Nineteenth Table; application to foliage; application herbicide amount 320 g/ha
In short: as §3

melting point [°C] | SMILES | A: Echinochloa oryzicola Vasing. (herbicidal effect grade) [1] | C: Monochoria vaginalis (herbicidal effect grade) (Monochoria vaginalis [2]) | B: Scirpus juncoides (herbicidal effect grade) (Scirpus juncoides [3]) | a: transplanted Oryza sativa (effect on crop grade) [4] | A (Echinochloa oryzicola Vasing.) herbicidal ratio grade [5] | C (Monochoria vaginalis) herbicidal ratio grade (Monochoria vaginalis [6]) | B (Scirpus juncoides) herbicidal ratio grade (Scirpus juncoides [7]) | E (herbicidal effect grade) (Cyperus difformis) | H (herbicidal effect grade) [8] | D (herbicidal effect grade) (Leptochloa chinensis)
198 to 200 | CC(C)c1nnc2c(C(=S)Nc3nnnn3C)ccc(C(F)(F)F)n12 [2-039, 3-Isopropyl-N-(1-methyl-1H-tetrazol-5-yl)-5-(trifluoromethyl)-[1,2,4]triazolo[4,3-a]pyridine-8-carbothioamide] | 5 (Herbicidal ratio of 90% or more (almost completely withered)) | 5 (Herbicidal ratio of 90% or more (almost completely withered)) | 5 (Herbicidal ratio of 90% or more (almost completely withered)) | 4 (Herbicidal ratio of 70% or more and less than 90%) | 5 (Herbicidal ratio of 90% or more (almost completely withered)) | 5 (Herbicidal ratio of 90% or more (almost completely withered)) | 5 (Herbicidal ratio of 90% or more (almost completely withered)) | 5 (Herbicidal ratio of 90% or more (almost completely withered)) | 5 (Herbicidal ratio of 90% or more (almost completely withered)) | 
 | CSC(C)c1nnc2c(C(=O)Nc3nnnn3C)ccc(C(F)(F)F)n12 (stereo not shown) [2-052] | 5 (Herbicidal ratio of 90% or more (almost completely withered)) | 5 (Herbicidal ratio of 90% or more (almost completely withered)) | 5 (Herbicidal ratio of 90% or more (almost completely withered)) | 5 (Herbicidal ratio of 90% or more (almost completely withered)) | 5 (Herbicidal ratio of 90% or more (almost completely withered)) | 4 (Herbicidal ratio of 70% or more and less than 90%) | 4 (Herbicidal ratio of 70% or more and less than 90%) | 5 (Herbicidal ratio of 90% or more (almost completely withered)) | 5 (Herbicidal ratio of 90% or more (almost completely withered)) | 5 (Herbicidal ratio of 90% or more (almost completely withered))
 | Cn1nnnc1NC(=O)c1ccc(C(F)(F)F)n2c(-c3cccs3)nnc12 [2-061] | 5 (Herbicidal ratio of 90% or more (almost completely withered)) | 5 (Herbicidal ratio of 90% or more (almost completely withered)) | 5 (Herbicidal ratio of 90% or more (almost completely withered)) | 4 (Herbicidal ratio of 70% or more and less than 90%) | 4 (Herbicidal ratio of 70% or more and less than 90%) | 5 (Herbicidal ratio of 90% or more (almost completely withered)) | 5 (Herbicidal ratio of 90% or more (almost completely withered)) | 5 (Herbicidal ratio of 90% or more (almost completely withered)) | 5 (Herbicidal ratio of 90% or more (almost completely withered)) | 5 (Herbicidal ratio of 90% or more (almost completely withered))
 | COCCNc1nnc2c(C(=O)Nc3nnnn3C)ccc(C(F)(F)F)n12 [2-074] | 4 (Herbicidal ratio of 70% or more and less than 90%) | 3 (Herbicidal ratio of 40% or more and less than 70%) | 4 (Herbicidal ratio of 70% or more and less than 90%) | 3 (Herbicidal ratio of 40% or more and less than 70%) | 4 (Herbicidal ratio of 70% or more and less than 90%) | 3 (Herbicidal ratio of 40% or more and less than 70%) | 4 (Herbicidal ratio of 70% or more and less than 90%) | 4 (Herbicidal ratio of 70% or more and less than 90%) | 5 (Herbicidal ratio of 90% or more (almost completely withered)) | 5 (Herbicidal ratio of 90% or more (almost completely withered))
 | COCCN(C)c1nnc2c(C(=O)Nc3nnnn3C)ccc(C(F)(F)F)n12 [2-079] | 5 (Herbicidal ratio of 90% or more (almost completely withered)) | 5 (Herbicidal ratio of 90% or more (almost completely withered)) | 5 (Herbicidal ratio of 90% or more (almost completely withered)) | 4 (Herbicidal ratio of 70% or more and less than 90%) | 5 (Herbicidal ratio of 90% or more (almost completely withered)) | 5 (Herbicidal ratio of 90% or more (almost completely withered)) | 5 (Herbicidal ratio of 90% or more (almost completely withered)) | 5 (Herbicidal ratio of 90% or more (almost completely withered)) | 5 (Herbicidal ratio of 90% or more (almost completely withered)) | 5 (Herbicidal ratio of 90% or more (almost completely withered))
 | Cn1nnnc1NC(=O)c1ccc(C(F)(F)F)n2c(CCS(C)(=O)=O)nnc12 [2-059] | 4 (Herbicidal ratio of 70% or more and less than 90%) | 4 (Herbicidal ratio of 70% or more and less than 90%) | 4 (Herbicidal ratio of 70% or more and less than 90%) | 5 (Herbicidal ratio of 90% or more (almost completely withered)) | 4 (Herbicidal ratio of 70% or more and less than 90%) | 4 (Herbicidal ratio of 70% or more and less than 90%) | 3 (Herbicidal ratio of 40% or more and less than 70%) | 5 (Herbicidal ratio of 90% or more (almost completely withered)) | 5 (Herbicidal ratio of 90% or more (almost completely withered)) | 5 (Herbicidal ratio of 90% or more (almost completely withered))
 | Cn1nnnc1NC(=O)c1ccc(C(F)(F)F)n2c(Nc3ccccc3)nnc12 [2-056] | 4 (Herbicidal ratio of 70% or more and less than 90%) | 3 (Herbicidal ratio of 40% or more and less than 70%) | 4 (Herbicidal ratio of 70% or more and less than 90%) | 1 (Herbicidal ratio of 5% or more and less than 20%) | 3 (Herbicidal ratio of 40% or more and less than 70%) | 3 (Herbicidal ratio of 40% or more and less than 70%) | 3 (Herbicidal ratio of 40% or more and less than 70%) | 4 (Herbicidal ratio of 70% or more and less than 90%) | 4 (Herbicidal ratio of 70% or more and less than 90%) | 5 (Herbicidal ratio of 90% or more (almost completely withered))
